Results: patent US20230257374A1, “NOVEL KRAS G12C PROTEIN INHIBITOR, PREPARATION METHOD THEREFOR, AND USE THEREOF” (INNOVENT BIOLOGICS (SUZHOU) CO., LTD., priority 2019, published 2023)
Where two headings read alike, the source gives them in different places.

Legend:
KRAS G12C protein = target: T1, KRAS G12C protein (Homo sapiens, UniProt P01116, G12C); assay: ERK protein phosphorylation assay (p-ERK) in H358 cells; assay type: cell-based; set-up: scale not given here; details: H358 cells expressing KRAS G12C protein, 3 h incubation with compound; read-out: IC50, inhibiting phosphorylation of KRAS G12C protein-mediated downstream signaling (p-ERK)
T1 construct: H358 cells (ATCC, CRL-5807) expressing KRAS G12C protein; host or cells: H358 (NCI-H358) cells
Experimental: The cells were cultured in a 5% CO2 cell incubator for 16 h. The serially diluted compound was added to the cell medium with Echo550 at a final DMSO concentration of 0.5%, and the incubation was continued for 3 h. Then 8% paraformaldehyde (Solarbio, P1112) was added at 40 μL/well, followed by incubation at room temperature for 20 min. After one washing with PBS, cold 100% methanol was added at 40 μL/well for permeabilization for 10 min. […] Washing with PBST was performed 3 times, with 2 min of incubation for each washing. […] Washing with PBST was performed 3 times, with 2 min of incubation for each washing. Finally, the cell culture plate was inverted and centrifuged at 1000 rpm for 1 min, after which fluorescence signals were read using Odyssey CLx.

[1] = system: H1373 cell line (K-RAS G12C); assay: cells; assay type: cell-based
Experimental: (§1) a) On day 1, seed cells were placed in T75 a flask. b) On day 3, the medium was taken out and washed once with DPBS. c) Cells were trypsinized with 2 mL TrypLE™ Express enzyme at room temperature (RT) or 37° C. until cells detached. d) 5 mL of fresh medium was added to suspend the cells, and then the suspension was centrifuged at 1000 rpm and room temperature for 5 min. e) The supernatant was discarded, and the cells were resuspended in 5 mL of fresh medium and counted using Countess™ H. f) The cells were seeded back into the T75 flask for further culture or placed into an assay plate for 3D cell proliferation assay.
(§2) The cells were seeded at a density of 600 cells/well in a 384-well plate with 40 μL of medium per well and a final DMSO concentration of 0.5%. b) On day 4, a 3D CTG reagent was added to each well, followed by shaking at room temperature for 1 h. c) The signals were recorded using Envision.
(§3) a) Robustness was examined using 0.5% DMSO and data of blank control medium: H=mean (DMSO); L=mean (medium); SD (H)=STDEV (DMSO); SD (L)=STDEV (medium);
(§4) Y=peak valley value+(peak top value−peak valley value)/(1+10^((Log IC50−X)×HillSlope));
(§5) X: logarithm of compound concentration; Y: percent inhibition (% inhibition); Peak top and peak valley values: the plateau period units are the same as Y; log IC50: the same logarithmic unit as X; HillSlope: slope coefficient or Hill slope.

[2] = system: MIA PaCa-2 cell line (K-RAS G12C); assay: cells; assay type: cell-based
Experimental: as §1, §2, §3, §4, §5

[3] = system: PC-9 cell line (K-RAS wild type); assay: cells; assay type: cell-based; details: Homo sapiens, PC-9, 96 h; 3D culture, CellTiter-Glo 3D, read on day 4
Experimental: as §1, §2, §3, §4, §5

[4] = system: H358 cell line (K-RAS G12C); assay: cells; assay type: cell-based, human
Experimental: as §1, §2, §3, §4, §5

[5] = system: NCI-H358 tumor (K-RAS G12C mutation); assay type: in vivo, BALB/c nude mice; details: for Tumor regression: animals with regression / group of 8
Experimental: The cells were digested with trypsin-EDTA twice a week for passaging as per conventional practice. When the cell saturation reached 80%-90% and a required amount was achieved, the cells were collected and counted for later use. […] 5% DMSO/5% Solutol/90% water was used as a blank control. 3) Tumor inoculation and drug administration: BALB/c nude mice, female, 6-8 weeks old, weighing 18-20 g. The experiment started after 3-7 days of adaptive feeding. 0.1 mL of NCI-H358 cells (5×10^6 cells) were inoculated subcutaneously on the right back of each mouse. The mice were grouped for administration when the average tumor volume reached approximately 150 mm^3. The animals were weighed before administration and the tumor volume was measured. Grouping was randomly performed according to the tumor volume.
Animals were monitored daily for health and death, and routine examinations include observation of the effect of tumor growth and drug treatment on the daily performance of the animals, such as behavioral activities, food and water intake, weight changes (measured once every other day), appearance, or other abnormal conditions. Animal mortality and side effects within each group were recorded based on the number of animals in the group.
Tumor diameters were measured 2-3 times weekly using a vernier caliper.
The tumor volume was calculated as follows: […]
where a and b represent the long and short diameters of the tumor, respectively.
The anti-tumor therapeutic effect of the compound was evaluated by tumor growth inhibition rate TGI (%) or relative tumor proliferation rate T/C (%).
TGI (%) was calculated as follows: […]
T/C (%) was calculated as follows: […]
where TRTV represents the relative tumor volume of the treatment group; CRTV represents the relative tumor volume of the solvent control group.
Based on the results of tumor measurement, the relative tumor volume (RTV) was calculated as follows: […]
where V0 represents the average tumor volume measured at the time of grouping and administration (i.e., d0), Vt represents the average tumor volume in a certain measurement, and TRTV and CRTV take the data on the same day.
After the completion of the experiment, tumors were weighed, and the percentage of Tweight/Cweight was calculated, where Tweight and Cweight represent the tumor weights of the treatment group and the solvent control group, respectively.
Data calculation and analysis: T test was employed for comparison between two groups. One-way ANOVA was employed for comparison between three or more groups. If there is a significant difference in F-values, multiple comparisons should be made after ANOVA analysis. All data analyses were performed with SPSS 17.0. p<0.05 was defined as a significant difference.

[6] = Stability test in human plasma
Experimental: (§6) To examine the stability of the test compounds in plasma, representative compounds were selected for evaluation.
(§7) Preparation of stock solution: a test compound was dissolved in DMSO to prepare a 1 mM stock solution for later use; Propantheline Bromide was dissolved in acetonitrile to prepare a 1 mM stock solution as a positive control for later use.
(§8) To each well was added 2 μL of the stock solution of the test compound and the stock solution of the positive control such that the final concentrations were 5 KM and the concentration of the organic solvent was 0.5%. Each compound was prepared in duplicate, followed by incubation at 37° C. 50 μL of samples were taken from the reaction samples in equal amounts at 0, 30, 60, 120, 180 and 240 minutes, and 450 μL of cold acetonitrile containing an internal standard was added to terminate the reaction. […] 100 μL of the supernatants were transferred to a new plate, dilute with ultra-pure water, and analyzed by LC-MS/MS.
(§9) Data results were calculated according to peak area ratios.
(§10) The percentage of remaining compound for each time point was calculated as follows:
(§11) Remaining percentagemin(%)=peak area ratiosmin/peak area ratiomin×100%
(§12) where peak area ratios represents the peak area ratio of the test compound to the internal standard compound at t min; peak area ratiomin represents the peak area ratio of the test compound to the internal standard compound at 0 min (initial).

Caco-2 cells = assay: in vitro; details: Caco-2
Experimental: Drug penetration test: the Transwell culture plate was retrieved from the incubator. […] All samples were prepared in double parallel. The integrity of the cell monolayer membrane after 2 hours of incubation was assessed using leakage of fluorescein; fluorescein stock solution was diluted with HBSS (25 mM HEPES, pH 7.4) to a final concentration of 100 μM. 100 μL of fluorescein solution was added to each well of the upper Transwell plate and 300 μL of HBSS (25 mM HEPES, pH 7.4) was added to each well of the lower receiving plate; after incubation at 37° C. for 30 min, 80 μL of the solution was pipetted from the upper and lower layers of each well to a new 96-well plate.
The apparent permeability coefficients (Papp, unit: cm/s) of the compounds in Caco-2 cells were calculated from the specific concentrations at the acceptor and donor ends, and the specific calculation formula is as follows: […]
where VA represents the volume of the acceptor end solution (0.3 mL for Ap→Bl, 0.1 mL for Bl→Ap); Area represents the area of the Transwell-96 well plate (0.143 cm^2); time represents the incubation time (unit: s); [drug]acceptor represents the drug concentration (ratio of peak area to internal standard area) at the acceptor end; [drug]initial, donor represents the drug concentration at the donor end (ratio of peak area to internal standard area).
The efflux ratio was calculated as follows: […]
where Papp (B-A) represents the apparent permeability coefficient from base end to top end; Papp (A-B) represents the apparent permeability coefficient from top end to base end.

in vitro = details: microsomes
Experimental: To examine the in vitro metabolic stability of the test compounds in liver microsomes of different species, representative compounds were selected, and their stability was evaluated by measuring the concentration of the test compounds in the incubation system using LC/MS/MS and calculating their intrinsic clearance in the microsome system.
The method is specifically as follows: each compound was first dissolved in DMSO to prepare a 200 μM working solution and added to the system solution at the time of testing to form a solution with a final concentration of 1 μM.
The microsomes were stored in a −80° C. freezer.
Preparation of incubation system: an incubation system was prepared as described in the table below.
25 μL, of NADPH or phosphate buffered saline was transferred to the incubation system described above, and 2 μL, of 200 μM of the test compound or verapamil was added. The sample with NADPH added was prepared in duplicate; the NADPH negative sample was prepared in single parallel. 30 μL, of suspension was taken at 0.5, 5, 15, 30 and 60 minutes. The reaction system was terminated by adding 180 μL, of acetonitrile containing an internal standard and vortexed for 10 min. […] 100 μL, of the supernatant was transferred to a feeding plate, and 100 μL, of purified water was added. The mixture was well mixed for UPLC-MS/MS analysis.
The results based on the data were obtained by calculation according to the peak area ratio, and the peak area was detected through an extracted ion chromatogram.
The slope value (k) was determined by linear fitting of the natural logarithm of drug elimination percentage over time.

[7] = human, plasma
Experimental: as §6, §7, §8, §9, §10, §11, §12

T1 sequence (P01116 1-188 isoform P01116-2 G12C): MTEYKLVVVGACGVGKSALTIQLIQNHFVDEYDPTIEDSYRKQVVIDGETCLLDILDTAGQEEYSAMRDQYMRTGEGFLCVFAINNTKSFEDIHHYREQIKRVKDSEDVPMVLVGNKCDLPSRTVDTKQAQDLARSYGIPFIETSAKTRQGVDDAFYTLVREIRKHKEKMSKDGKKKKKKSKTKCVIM

SMILES: [2H]C([2H])([2H])c1cccc2cccc(N3CCc4c(nc(OC[C@@H]5CCCN5C([2H])([2H])[2H])nc4N4CCN(C(=O)C=C)[C@@H](CC#N)C4)C3)c12 [Compound 17, 2-((S)-1-acryloyl-4-(7-(8-(methyl-d3)naphthalen-1-yl)-2-(((S)-1-(methyl-d3)pyrrolidin-2-yl)methoxy)-5,6,7,8-tetrahydropyrido[3,4-d]pyrimidin-4-yl)piperazin-2-yl)acetonitrile]
- IC50 (KRAS G12C protein): < 1000 nM
- IC50 ([1]; Homo sapiens, NCI-H1373, 96 h, 3D culture, CellTiter-Glo 3D, read on day 4, read-out: H1373 (K-RAS G12C) IC50): 0.32 nM
- Selectivity (fold number of mutant vs. wild type) ([1]; PC-9 IC50 vs. H1373 IC50): 14656 fold
- IC50 ([2]; Homo sapiens, MIA PaCa-2, 96 h, 3D culture, CellTiter-Glo 3D, read on day 4, read-out: MIA PaCa-2 (K-RAS G12C) IC50): 0.44 nM
- Selectivity (fold number of mutant vs. wild type) ([2]; PC-9 IC50 vs. MIA PaCa-2 IC50): 10659 fold
- IC50 [3]: 4690 nM
- IC50 ([4]; Homo sapiens, NCI-H358, 96 h, 3D culture, CellTiter-Glo 3D, read on day 4, read-out: H358 (K-RAS G12C) IC50): 0.34 nM
- Selectivity (fold number of mutant vs. wild type) ([4]; PC-9 IC50 vs. H358 IC50): 13794 fold
- Day 0 Tumor volume (mm^3) Vaverage ± SEM ([5]; Day 0 (at grouping, before administration), 15 mg/kg PO QD group): 151 ± 10 mm^3
- Day 21 Tumor volume (mm^3) Vaverage ± SEM ([5]; Day 21, 15 mg/kg PO QD): 90 ± 12 mm^3
- Tumor inhibition rate TGI (%) ([5]; Day 21, 15 mg/kg PO QD): 110.7%
- Tumor regression ([5]; Day 21, 15 mg/kg PO QD): 8/8
- Tumor regression ([5]; Day 21, 15 mg/kg PO QD, listed as compound 17): the tumors in all of the animals regressed
- Day 0 Body weight (g) Waverage ± SEM ([5]; mouse, in vivo, po, 15 mg/kg): 22.6 ± 0.7 g
- Remaining percentage (%) 0 min ([6]; human plasma, 37° C., 0 min): 100.00%
- Remaining percentage (%) 30 min ([6]; human plasma, 37° C., 30 min): 97.00%
- Remaining percentage (%) 60 min ([6]; human plasma, 37° C., 60 min): 92.97%
- Remaining percentage (%) 120 min ([6]; human plasma, 37° C., 120 min): 78.91%
- Remaining percentage (%) 180 min ([6]; human plasma, 37° C., 180 min): 59.98%
- Remaining percentage (%) 240 min ([6]; human plasma, 37° C., 240 min): 47.82%
- half-life at 5 μM ([6]; human, plasma): 3.63 h

SMILES: C=CC(=O)N1CCN(c2nc(OC[C@@H]3CCCN3C)nc3c2CCN(c2cccc4cccc(C)c24)C3)C[C@@H]1CC#N [MRTX-1257, reference compound]
- Efflux ratio (Caco-2 cells): 16.31
- CLint (μL/min/mg protein) (in vitro; human): 54.30 μL/min/mg protein
- t1/2 (in vitro; human): 0.4263 h
- CLint (μL/min/mg protein) (in vitro; mouse): 74.97 μL/min/mg protein
- t1/2 (in vitro; mouse): 0.3082 h
- t1/2 [7]: 1.608 h
- Remaining percentage (%) 0 min ([7]; 0 h): 100.00%
- Remaining percentage (%) 30 min ([7]; 0.5 h): 88.91%
- Remaining percentage (%) 60 min ([7]; 1 h): 82.31%
- Remaining percentage (%) 120 min ([7]; 2 h): 55.64%
- Remaining percentage (%) 180 min ([7]; 3 h): 32.06%
- Remaining percentage (%) 240 min ([7]; 4 h): 18.12%
